What was measured:
Cyp1a2 = test: Real-time PCR mRNA level after 7 days gavage: Cyp1a2; assay type: in vivo; conditions: mice, 2, 5, 10 mg/kg p.o. 7 days; kidneys
Experimental: (§1) Mice were randomly divided into four groups, with eight animals in each group. The mice received oral pretreatment with N-hydap for 7 days at doses of 2, 5, and 10 mg/kg/day, which were considered as the low dose, medium dose, and high dose, respectively. Correspondingly, the control group received PBS. On the 8th day, the liver and kidneys were removed, and organs from eight mice per group were combined to prepare MLMs and MKMs using the detailed procedures above. Subsequently, we determined the activity of CYP and UGT enzymes by specific substrate metabolized with MLMs (0.5 mg/mL) and MKMs (0.2 mg/mL) in vitro. […] In the ex vivo experiments, the activity of enzymes was measured by quantifying the production of various metabolites (nM/mg protein/min). […] The measurements were performed using multiple reaction monitoring (MRM) transitions, which are specific mass spectrometry transitions used for quantification. […]
Total RNA from liver and kidney samples taken after 7 days of N-hydap gavage was extracted using the Animal Total RNA Isolation Kit (Foregene, Chengdu, Sichuan, China) following the manufacturer’s instructions. The concentrations of total RNA were determined by a nucleic acid concentration tester at 260/280 nm. […]

Cyp2e1 = test: DME activity ex vivo in MLMs and MKMs: CYP2E1 (6-OH-CZX from CZX); set-up: species or system mice; key: ↑: up-regulation; ↓: down-regulation; –: no change
Experimental: as §1, with “vitro. Specifically, the following selective substrates were used for the respective enzymes: PH (1 μM) for CYP1A2, DIC (1 μM) for CYP2C9, MP (90 μM) for CYP2C19, DM (1 μM) for CYP2D6, CZX (10 μM) for CYP2E1, Tes (1 μM) for CYP3A4, SN38 (1 μM) for UGT1A1, CACD (100 μM) for UGT1A3, Sero (20 μM) for UGT1A6, and Prop (1 μM) for UGT1A9. All substrates were dissolved in methanol or DMSO.” for “vitro.”

RLMs = test: Kinetics of N-hydap glucuronidation in RLMs; assay type: in vitro ADME, rat; conditions: RLM
Experimental: (§2) In this study, the rats were executed by drawing blood from the abdominal aorta and mice were sacrificed with cervical dislocation before the liver and kidneys were excised. The liver and kidneys were removed, and washed with chilled cleansing solution (contains 8 mM KH2PO4, 5.6 mM EDTA·K2·2H2O, 1 mM DTT and 229.6 μM PMSF), homogenized in a tissue homogenate buffer with a pH of 7.4, (consisting of […], 8 mM K2HPO4, 250 mM sucrose, 1 mM EDTA·K2·2H2O and 229.6 μM PMSF). Subsequently, the homogenate was centrifuged at 10,400 rpm at 4 °C for 15 min, and the supernatant was then centrifuged at 35,000 rpm at 4 °C for 60 min. A 250 mM sucrose buffer was added to the pellet to reconstitute and the resuspension was stored at − 80 °C until use. Microsome protein concentrations were measured by Omni-Easy™ Instant BCA Protein Assay Kit.
(§3) Various microsomes including HLMs, HKMs, HIMs, RLMs, RKMs, MLMs and MKMs were involved in CYP and UGT reactions of N-hydap. […]
(§4) The substrate concentrations used for HLMs were 0.05, 0.5, 2, 2.5, 5, 10, 25, 50, and 100 μM. […] The rates of N-hydap-G by enzymes were expressed as nmol/mg/min, representing the amount of metabolites formed per minute per milligram of protein. Kinetic parameters were determined by analyzing the Eadie–Hofstee plots. […]

MKMs = test: Kinetics of N-hydap glucuronidation in MKMs; assay type: in vitro ADME, mouse; conditions: MKM
Experimental: as §2, §3, §4

CC1CCC2C(C=CC(C)C2C(=O)c2c(O)c(C3(O)CCC(O)C4OC43)cn(O)c2=O)C1 (centres unmarked) [N-hydap, N-Hydroxyapiosporamide]
decrease of mRNA levels of Cyp1a2 (Cyp1a2): 48%
CYP2E1 Enzymatic activity (Cyp2e1; Kidney): ↑
CYP2E1 Enzymatic activity (Cyp2e1; Liver): ↓
Km (RLMs): 0.357 µM
Km (MKMs): 405 µM

— paper PMC11109052, “Metabolism characterization and toxicity of N-hydap, a marine candidate drug for lung cancer therapy by LC–MS method” (Natural Products and Bioprospecting, 2024)
